The subject of data set [1] is Mus musculus. The data set can be described thus: Net log cell kill was determined after injecting 3.75 mg/kg intraperitoneally in CD2F1 mice. The class given is functional. Particulars: route intraperitoneal.
Data set [2] concerns Mus musculus. Briefly: Toxicity day survivors was determined by the ratio of animals survived to that of test animals at 15 mg/kg intraperitoneally in CD2F1 mice; 4/4. Also noted: dose 15 mg/kg, route intraperitoneal. In kind it is organism-based. Particulars: in vivo, ip.
Data set [3] relates to Mus musculus. Briefly: Net log cell kill was determined after injecting 30 mg/kg intraperitoneally in CD2F1 mice. In kind it is functional. Particulars: route intraperitoneal.
For data set [4], the system named is Mus musculus. The data set can be described thus: Toxicity day survivors was determined by the ratio of animals survived to that of test animals at 3.75 mg/kg intraperitoneally in CD2F1 mice; 5/5. The class given is organism-based. More on the design: dose 3.75 mg/kg, route intraperitoneal. Particulars: in vivo, ip.
Data set [5] deals with Mus musculus. Briefly: Toxicity day survivors was determined by the ratio of animals survived to that of test animals at 7.5 mg/kg intraperitoneally in CD2F1 mice; 4/4. In kind it is organism-based. More on the design: dose 7.5 mg/kg, route intraperitoneal. Particulars: in vivo, ip.
In data set [6] the test system is Mus musculus. Briefly: Toxicity day survivors was determined by the ratio of animals survived to that of test animals at 30 mg/kg intraperitoneally in CD2F1 mice; 6/6. Particulars: in vivo, ip. The class given is organism-based. More on the design: dose 30 mg/kg, route intraperitoneal.
The subject of data set [7] is Mus musculus. Briefly: Body weight change of test animals to that of control was determined after injection at 7.5 mg/kg intraperitoneally in CD2F1 mice. The class given is functional. Particulars: route intraperitoneal.
Data set [8] relates to Mus musculus. Briefly: Net log cell kill was determined after injecting 1.87 mg/kg intraperitoneally in CD2F1 mice. Particulars: route intraperitoneal. In kind it is functional.
Data set [9] concerns Mus musculus. Briefly: Body weight change of test animals to that of control was determined after injection at 3.75 mg/kg intraperitoneally in CD2F1 mice. The class given is functional. Particulars: route intraperitoneal.
In data set [10] the test system is Mus musculus. Briefly: Toxicity day survivors was determined by the ratio of animals survived to that of test animals at 1.87 mg/kg intraperitoneally in CD2F1 mice; 5/5. The class given is organism-based. More on the design: dose 1.87 mg/kg, route intraperitoneal. Particulars: in vivo, ip.
For data set [11], the system named is Mus musculus. The data set can be described thus: Toxicity day survivors was determined by the ratio of animals survived to that of test animals at 60 mg/kg intraperitoneally in CD2F1 mice; 0/6. Particulars: in vivo, ip. More on the design: dose 60 mg/kg, route intraperitoneal. The class given is organism-based.
Data set [12] has as its system Mus musculus. Briefly: Ratio of treated to that of untreated tumor-bearing control animals at 1.87 mg/kg intraperitoneally in CD2F1 mice was determined. In kind it is functional. Particulars: route intraperitoneal.
Data set [13] relates to Mus musculus. Briefly: Body weight change of test animals to that of control was determined after injection at 15 mg/kg intraperitoneally in CD2F1 mice. In kind it is functional. Particulars: route intraperitoneal.
The test system of data set [14] is Mus musculus. Briefly: Body weight change of test animals to that of control was determined after injection at 30 mg/kg intraperitoneally in CD2F1 mice. The class given is functional. Particulars: route intraperitoneal.
Data set [15] relates to Mus musculus. Briefly: Body weight change of test animals to that of control was determined after injection at 1.87 mg/kg intraperitoneally in CD2F1 mice. In kind it is functional. Particulars: route intraperitoneal.
Data set [16] concerns Mus musculus. Briefly: Ratio of treated to that of untreated tumor-bearing control animals at 7.5 mg/kg intraperitoneally in CD2F1 mice was determined. The class given is functional. Particulars: route intraperitoneal.
Data set [17] relates to Mus musculus. Briefly: Ratio of treated to that of untreated tumor-bearing control animals at 3.75 mg/kg intraperitoneally in CD2F1 mice was determined. In kind it is functional. Particulars: route intraperitoneal.
For data set [18], the system named is Mus musculus. Briefly: Net log cell kill was determined after injecting 15 mg/kg intraperitoneally in CD2F1 mice. In kind it is functional. Particulars: route intraperitoneal.
The test system of data set [19] is Mus musculus. The data set can be described thus: Ratio of treated to that of untreated tumor-bearing control animals at 15 mg/kg intraperitoneally in CD2F1 mice was determined. The class given is functional. Particulars: route intraperitoneal.
For data set [20], the system named is Mus musculus. Briefly: Ratio of treated to that of untreated tumor-bearing control animals at 30 mg/kg intraperitoneally in CD2F1 mice was determined. The class given is functional. Particulars: route intraperitoneal.
Data set [21] deals with Mus musculus. The data set can be described thus: Net log cell kill was determined after injecting 7.5 mg/kg intraperitoneally in CD2F1 mice. In kind it is functional. Particulars: route intraperitoneal.
Data set [22] has as its system Mus musculus. The data set can be described thus: Toxicity day survivors was determined by the ratio of animals survived to that of test animals at 15 mg/kg intraperitoneally in CD2F1 mice; 0/6. The class given is organism-based. Also noted: dose 15 mg/kg, route intraperitoneal. Particulars: in vivo, ip.
The subject of data set [23] is Mus musculus. The data set can be described thus: Toxicity day survivors was determined by the ratio of animals survived to that of test animals at 1.87 mg/kg intraperitoneally in CD2F1 mice; 6/6. In kind it is organism-based. More on the design: dose 1.87 mg/kg, route intraperitoneal. Particulars: in vivo, ip.
Data set [24] relates to Mus musculus. Briefly: Toxicity day survivors was determined by the ratio of animals survived to that of test animals at 7.5 mg/kg intraperitoneally in CD2F1 mice; 6/6. Particulars: in vivo, ip. In kind it is organism-based. Also noted: dose 7.5 mg/kg, route intraperitoneal.
Data set [25] deals with Mus musculus. The data set can be described thus: Toxicity day survivors was determined by the ratio of animals survived to that of test animals at 3.75 mg/kg intraperitoneally in CD2F1 mice; 6/6. The class given is organism-based. More on the design: dose 3.75 mg/kg, route intraperitoneal. Particulars: in vivo, ip.
For data set [26], the system named is Mus musculus. Briefly: Toxicity day survivors was determined by the ratio of animals survived to that of test animals at 15 mg/kg intraperitoneally in CD2F1 mice; 5/5. Also noted: dose 15 mg/kg, route intraperitoneal. The class given is organism-based. Particulars: in vivo, ip.
The test system of data set [27] is Mus musculus. Briefly: Net log cell kill was determined after injecting 1.88 mg/kg intraperitoneally in CD2F1 mice. The class given is functional. Particulars: route intraperitoneal.
Data set [28] relates to Mus musculus. The data set can be described thus: Body weight change of test animals to that of control was determined after injection at 1.88 mg/kg intraperitoneally in CD2F1 mice. Particulars: route intraperitoneal. The class given is functional.
The subject of data set [29] is Mus musculus. The data set can be described thus: Toxicity day survivors was determined by the ratio of animals survived to that of test animals at 1.88 mg/kg intraperitoneally in CD2F1 mice; 6/6. In kind it is organism-based. Also noted: dose 1.88 mg/kg, route intraperitoneal. Particulars: in vivo, ip.
In data set [30] the test system is Mus musculus. The data set can be described thus: Ratio of treated to that of untreated tumor-bearing control animals at 1.88 mg/kg intraperitoneally in CD2F1 mice was determined. The class given is functional. Particulars: route intraperitoneal.
The subject of data set [31] is Mus musculus. Briefly: Toxicity day survivors was determined by the ratio of animals survived to that of test animals at 30 mg/kg intraperitoneally in CD2F1 mice; 4/6. In kind it is organism-based. Also noted: dose 30 mg/kg, route intraperitoneal. Particulars: in vivo, ip.
In data set [32] the test system is Mus musculus. Briefly: Toxicity day survivors was determined by the ratio of animals survived to that of test animals at 60 mg/kg intraperitoneally in CD2F1 mice; 4/6. In kind it is organism-based. Also noted: dose 60 mg/kg, route intraperitoneal. Particulars: in vivo, ip.
Data set [33] deals with Mus musculus. Briefly: Body weight change of test animals to that of control was determined after injection at 60 mg/kg intraperitoneally in CD2F1 mice. In kind it is functional. Particulars: route intraperitoneal.

Turning to `COc1ccc2c(c1)CCc1c(COC(=O)NC(C)C)c(COC(=O)NC(C)C)c(C)n1-2`, the KE was -1.45 with Mus musculus [1]; 1.51 with Mus musculus [3]; -1.56 in the data set on Mus musculus [8]; 1.43 in the data set with Mus musculus [18]; -1.31 with Mus musculus [21]. Moreover, the TDS was 4 in the data set with Mus musculus [2]; 5 in the data set with Mus musculus [4]; 4 in the data set on Mus musculus [5]; 6 in the data set on Mus musculus [6]; 5 in the data set with Mus musculus [10]; 0 in the data set on Mus musculus [11]. The T-C in the data set with Mus musculus [7] was -2.9 g; with Mus musculus [9] it was -0.8 g; in the data set with Mus musculus [13], -6.5 g; in the data set on Mus musculus [14], -4.2 g; in the data set with Mus musculus [15], -0.6 g. In addition, the T/C with Mus musculus [12] stood at 97%; with Mus musculus [16], 116%; in the data set with Mus musculus [17], 105%; with Mus musculus [19], 150%; with Mus musculus [20], 160%.

Take `Cc1c(COC(=O)NC(C)C)c(COC(=O)NC(C)C)c2n1-c1ccccc1CC2`: the KE was 1.47 with Mus musculus [1], -0.14 in the data set with Mus musculus [8] and -1.64 with Mus musculus [21]. Besides, the TDS in the data set on Mus musculus [22] amounted to 0; in the data set on Mus musculus [23], 6; in the data set with Mus musculus [24], 6; with Mus musculus [25], 6. Further, the values for the T-C with Mus musculus [7], in the data set with Mus musculus [9] and in the data set with Mus musculus [15] were -2.8 g, -3.6 g and -1.5 g, respectively. Besides, the T/C with Mus musculus [12] is on record as 134%; in the data set on Mus musculus [16], 94%; with Mus musculus [17] it was 155%.

For the compound `COc1ccc2c(c1)CCn1cc(COC(=O)NC(C)C)c(COC(=O)NC(C)C)c1-2`, the KE with Mus musculus [1] is listed as 3.46; in the data set on Mus musculus [27], 2.18; in the data set with Mus musculus [18], -1.07; in the data set on Mus musculus [21], 5.83. Further, the TDS was determined as 5 in the data set with Mus musculus [26]; 6 in the data set on Mus musculus [24]; 6 with Mus musculus [29]; 4 in the data set on Mus musculus [31]; 4 in the data set on Mus musculus [32]; 6 with Mus musculus [25]. In addition, the T-C in the data set on Mus musculus [7] was -4.8 g; with Mus musculus [28], -1.8 g; in the data set on Mus musculus [9], -3.4 g; in the data set on Mus musculus [13] it was -3 g; in the data set on Mus musculus [14], -3.1 g; with Mus musculus [33], -4.6 g. Further, the T/C in the data set on Mus musculus [30] is on record as 174%; with Mus musculus [16] it was 232%; in the data set on Mus musculus [17], 194%; with Mus musculus [19] it was 125%.
